≈ marks a conversion by molar mass, not a printed value.
Assays:
[1] = target: T1, Recombinant human soluble guanylate cyclase (sGC), alpha 1 / beta 1 subunits, heme-free (Homo sapiens, UniProt Q02108+Q02153); assay: Molecular assay: cGMP formation by heme-free recombinant sGC (CisBio cGMP detection kit); type: biochemical; settings: 300 pM heme-free sGC, 37° C., 60 min, cGMP readout; read-out: EC50 nM, Activity of Compounds in Molecular Assay
T1 construct: histidine tag (C); made in house; host or cells: Sf9 insect cells (baculovirus coinfection)
T1 sequence (Q02108 1-690 partner): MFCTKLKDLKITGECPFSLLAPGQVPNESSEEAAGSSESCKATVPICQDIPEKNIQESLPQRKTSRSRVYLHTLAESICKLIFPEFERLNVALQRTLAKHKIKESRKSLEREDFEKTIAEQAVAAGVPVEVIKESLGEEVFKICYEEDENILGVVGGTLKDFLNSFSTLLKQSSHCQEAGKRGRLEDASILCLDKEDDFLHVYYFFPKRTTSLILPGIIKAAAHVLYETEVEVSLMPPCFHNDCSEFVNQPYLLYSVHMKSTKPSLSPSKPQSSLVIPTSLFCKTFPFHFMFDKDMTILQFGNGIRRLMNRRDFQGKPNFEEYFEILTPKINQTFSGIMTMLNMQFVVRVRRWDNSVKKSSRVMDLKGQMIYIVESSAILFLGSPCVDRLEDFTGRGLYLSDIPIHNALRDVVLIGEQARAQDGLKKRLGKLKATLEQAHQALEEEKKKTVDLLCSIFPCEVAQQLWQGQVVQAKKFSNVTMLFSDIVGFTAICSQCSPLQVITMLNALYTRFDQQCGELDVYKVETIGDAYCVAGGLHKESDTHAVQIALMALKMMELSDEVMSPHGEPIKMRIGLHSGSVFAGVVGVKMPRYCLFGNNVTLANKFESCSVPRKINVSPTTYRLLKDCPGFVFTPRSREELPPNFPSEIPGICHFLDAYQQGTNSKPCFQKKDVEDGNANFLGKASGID
T1 sequence (Q02153 1-619): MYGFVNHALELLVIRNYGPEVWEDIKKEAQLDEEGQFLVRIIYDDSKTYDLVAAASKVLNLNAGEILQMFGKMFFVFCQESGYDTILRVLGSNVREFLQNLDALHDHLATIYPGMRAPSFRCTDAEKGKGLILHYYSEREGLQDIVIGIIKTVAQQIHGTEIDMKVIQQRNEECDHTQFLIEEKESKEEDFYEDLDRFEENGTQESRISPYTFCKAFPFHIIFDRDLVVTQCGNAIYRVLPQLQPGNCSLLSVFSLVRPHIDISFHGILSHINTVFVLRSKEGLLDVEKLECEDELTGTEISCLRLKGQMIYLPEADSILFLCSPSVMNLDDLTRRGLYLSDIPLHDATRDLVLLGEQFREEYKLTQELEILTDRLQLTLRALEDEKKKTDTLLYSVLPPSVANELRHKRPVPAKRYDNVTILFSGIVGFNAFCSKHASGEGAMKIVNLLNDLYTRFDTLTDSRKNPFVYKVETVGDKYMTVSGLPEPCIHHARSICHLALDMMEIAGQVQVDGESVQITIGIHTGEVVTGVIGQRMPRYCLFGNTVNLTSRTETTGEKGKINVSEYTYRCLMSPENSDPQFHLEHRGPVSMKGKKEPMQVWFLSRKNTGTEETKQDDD
Procedure, shortened: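 Heme-free His-tagged sGC (Sf9-expressed, Tween 20-treated lysate) at 300 pM incubated with compounds (1% DMSO) for 60 min at 37° C in MOPS pH 6.8 with 50 nM GTP, IBMX, TCEP. cGMP quantified by HTRF against calibration curve; EC50 from combined undiluted/diluted values.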

[2] = Assessment of solubility: HT solubility in pION buffer, UV spectrophotometry; settings: 16-19 h incubation, 1.0% DMSO; for solubility: pION system solution buffer, kinetic from dmso stock
[3] = pH 4.5, pH 4.5, aqueous buffer, Solubility (pH 4.5), pH 4.5 buffer
[4] = pH 7.4, pH 7.4, aqueous buffer, Solubility (pH 7.4), pH 7.4 buffer

Row | Compound | EC50 [1] | solubility [2, 3] | solubility [2, 4] | Solubility (pH 4.5) ([2]; pH 4.5 buffer) | Solubility (pH 7.4) ([2]; pH 7.4 buffer)
1 | Cc1ccc(OCc2ccc(C(=O)N3CCCCC3)cc2C)c(-c2csc(N3CCC(C(=O)O)CC3)n2)c1 [Compound 39] | 27 nM | 0.95 µg/mL (≈ 1.78 µM) | > 53 µg/mL | – | –
2 | Cc1ccc(OCc2ccc(CN3CCOCC3)cc2C)c(-c2csc(N(C)CCCC(=O)O)n2)c1 [Compound 179] | 990 nM | > 55 µg/mL | > 55 µg/mL | – | –
3 | Cc1ccc(OCc2ccc(C(=O)N3CCCC3)cc2C#N)c(-c2csc(N3CCC(C(=O)O)CC3)n2)c1 [Compound 30, 1-[4-[2-[[2-cyano-4-(pyrrolidine-1-carbonyl)phenyl]methoxy]-5-methyl-phenyl]thiazol-2-yl]piperidine-4-carboxylic acid] | 61 nM | 3.1 µg/mL (≈ 5.84 µM) | > 53 µg/mL | – | –
4 | Cc1cc(CN2CCS(=O)(=O)CC2)ccc1COc1c(-c2csc(N3CCC(C(=O)O)CC3)n2)cccc1C(F)(F)F [Compound 151] | 9.9 nM | 0.15 µg/mL (≈ 0.24 µM) | > 62 µg/mL | – | –
5 | Cc1cc(CN2CCOCC2)ccc1COc1ccc(Cl)cc1-c1csc(N2C3CCC2CC(C(=O)O)C3)n1 (stereo not drawn) [Compound 100] | 440 nM | 20 µg/mL (≈ 35.2 µM) | 27 µg/mL (≈ 47.5 µM) | – | –
6 | Cc1cc(C(=O)N2CCCCC2)ccc1COc1ccccc1-c1csc(N2CCC(C(=O)O)CC2)n1 [Compound 17] | 79 nM | 0.7 µg/mL (≈ 1.35 µM) | > 51 µg/mL | – | –
7 | Cc1ccc(OCc2ccc(CN3CCOCC3)cc2C)c(-c2csc(N3C4CCC3CC(C(=O)O)C4)n2)c1 (stereo not drawn) [Compound 174] | 320 nM | > 66 µg/mL | > 66 µg/mL | – | –
8 | Cc1cc(C(=O)N2CCCCC2)ccc1COc1ccccc1-c1csc(N2CC3C(C2)C3C(=O)O)n1 (stereo not drawn) [Compound 9] | 680 nM | 5.6 µg/mL (≈ 10.8 µM) | > 51 µg/mL | – | –
9 | Cc1cc(C(=O)N2CCCCC2)ccc1COc1ccccc1-c1csc(N2CCC(C(=O)O)CC2C)n1 (stereo not drawn) [Compound 41] | 70 nM | 1.1 µg/mL (≈ 2.06 µM) | > 53 µg/mL | – | –
10 | Cc1ccc(OCc2ccc(CN3CCOCC3)cc2C)c(-c2csc(N3CC(C(=O)O)C3)n2)c1 [Compound 215] | 1000 nM | > 60 µg/mL | > 60 µg/mL | – | –
11 | Cc1cc(CN2CCOCC2)ccc1COc1ccccc1-c1csc(N2C3CCC2CC(C(=O)O)C3)n1 (stereo not drawn) [Compound 44] | 760 nM | > 60 µg/mL | > 60 µg/mL | – | –
12 | Cc1cc(C(=O)N2CCCCC2)ccc1COc1ccc(F)cc1-c1csc(N2C3CCC2CC(C(=O)O)C3)n1 (stereo not drawn) [Compound 97] | 59 nM | 0.45 µg/mL (≈ 0.798 µM) | > 56 µg/mL | – | –
13 | Cc1cc(CN2CCOCC2)ccc1COc1ccc(C#N)cc1-c1csc(N2C3CCC2CC(C(=O)O)C3)n1 (stereo not drawn) [Compound 87] | 800 nM | > 63 µg/mL | > 63 µg/mL | – | –
14 | Cc1cc(C(=O)N2CCCCC2)ccc1COc1ccc(F)cc1-c1csc(N2CC3CCC(C2)C3C(=O)O)n1 (stereo not drawn) [Compound 98] | 780 nM | 0.2 µg/mL (≈ 0.355 µM) | > 56 µg/mL | – | –
15 | Cc1cc(CN2CCS(=O)(=O)CC2)ccc1COc1ccc(C#N)cc1-c1csc(N2CCC(C(=O)O)C(C)C2)n1 (stereo not drawn) [Compound 135] | 2700 nM | 0.45 µg/mL (≈ 0.757 µM) | > 59 µg/mL | – | –
16 | Cc1cc(CN2CCOCC2)ccc1COc1ccccc1-c1csc(N2CCC(C(=O)O)C(C)C2)n1 (stereo not drawn) [Compound 2] | 320 nM | – | – | >71 μg/mL | >71 μg/mL
17 | Cc1cc(C(=O)N2CCCCC2)ccc1COc1ccc(Cl)cc1-c1csc(N2CC3C(C2)C3C(=O)O)n1 (stereo not drawn) [Compound 78] | 550 nM | 0.2 µg/mL (≈ 0.362 µM) | > 55 µg/mL | – | –

Other lines, results leading:

Row | EC50 [1] | solubility [2, 3] | solubility [2, 4] | Solubility (pH 4.5) ([2]; pH 4.5 buffer) | Solubility (pH 7.4) ([2]; pH 7.4 buffer) | Compound
18 | 72 nM | > 65 µg/mL | > 65 µg/mL | – | – | Cc1ccc(OCc2ccc(CN3CCOCC3)cc2C#N)c(-c2csc(N3CC[C@@H](C(=O)O)[C@@H](C)C3)n2)c1 (relative stereo) [Compound 69, cis-1-[4-[2-[[2-cyano-4-(morpholinomethyl)phenyl]methoxy]-5-methyl-phenyl]thiazol-2-yl]-3-methyl-piperidine-4-carboxylic acid]
19 | 1200 nM | 0.35 µg/mL (≈ 0.612 µM) | > 57 µg/mL | – | – | Cc1cc(CN2CCS(=O)(=O)CC2)ccc1COc1ccc(F)cc1-c1csc(N2CC3C(C2)C3C(=O)O)n1 (stereo not drawn) [Compound 110]
20 | 610 nM | > 62 µg/mL | > 62 µg/mL | – | – | Cc1ccc(OCc2ccc(CN3CCOCC3)cc2C)c(-c2csc(N3CCC(C(=O)O)C3)n2)c1 (stereo not drawn) [Compound 6]
21 | 85 nM | 0.3 µg/mL (≈ 0.517 µM) | 21 µg/mL (≈ 36.2 µM) | – | – | Cc1cc(C(=O)N2CCCCC2)ccc1COc1ccc(Cl)cc1-c1csc(N2CC3CCC(C2)C3C(=O)O)n1 (stereo not drawn) [Compound 118]
22 | 2.5 nM | 0.35 µg/mL (≈ 0.625 µM) | 32 µg/mL (≈ 57.2 µM) | – | – | Cc1ccc(OCc2ccc(C(=O)N3CCCCC3)cc2C)c(-c2csc(N3CC4CCC(C3)C4C(=O)O)n2)c1 (stereo not drawn) [Compound 89, 3-(4-{5-methyl-2-[2-methyl-4-(piperidine-1-carbonyl)-benzyloxy]-phenyl}-thiazol-2-yl)-3-aza-bicyclo[3.2.1]octane-8-carboxylic acid]
23 | 45 nM | 0.2 µg/mL (≈ 0.339 µM) | > 58 µg/mL | – | – | Cc1cc(CN2CCS(=O)(=O)CC2)ccc1COc1ccc(Cl)cc1-c1csc(N2CCC(C(=O)O)CC2)n1 [Compound 133]
24 | 360 nM | 0.3 µg/mL (≈ 0.56 µM) | > 53 µg/mL | – | – | Cc1cc(C(=O)N2CCCCC2)ccc1COc1ccc(F)cc1-c1csc(N2CC3C(C2)C3C(=O)O)n1 (stereo not drawn) [Compound 55]
25 | 140 nM | > 64 µg/mL | > 64 µg/mL | – | – | Cc1ccc(OCc2ccc(CN3CCOCC3)cc2C)c(-c2csc(N3CC[C@@H](C(=O)O)[C@@H](C)C3)n2)c1 [Compound 173]
26 | 3.9 nM | 0.2 µg/mL (≈ 0.332 µM) | > 60 µg/mL | – | – | Cc1ccc(OCc2ccc(C(=O)N3CCCCC3)cc2C)c(-c2csc(N3CCC(C(=O)O)CC3C(F)(F)F)n2)c1 (stereo not drawn) [Compound 141]
27 | 230 nM | 51 µg/mL (≈ 82.4 µM) | > 71 µg/mL | – | – | Cc1ccc(OCc2ccc(CN3CCN(C(=O)C4CCOC4)CC3)cc2C)c(-c2csc(N3CCC(C(=O)O)CC3)n2)c1 (stereo not drawn) [Compound 197]
28 | 70 nM | > 52 µg/mL | > 52 µg/mL | – | – | Cc1cc(CN2CCOCC2)ccc1COc1c(C)cccc1-c1csc(N2CCC(C(=O)O)CC2)n1 [Compound 21]
29 | 190 nM | 13 µg/mL (≈ 25 µM) | > 51 µg/mL | – | – | Cc1cc(C(=O)N2CCCC2)ccc1COc1c(C)cccc1-c1csc(N2CCC(C(=O)O)CC2)n1 [Compound 15]
30 | 140 nM | > 59 µg/mL | > 59 µg/mL | – | – | Cc1ccc(OCc2ccc(CN3CCN(C(=O)N(C)C)CC3)cc2C)c(-c2csc(N3CCC(C(=O)O)CC3)n2)c1 [Compound 199]
31 | 39 nM | 1.6 µg/mL (≈ 2.76 µM) | > 69 µg/mL | – | – | Cc1ccc(OCc2ccc(CN3CCS(=O)(=O)CC3)cc2C#N)c(-c2csc(N3CCC(C(=O)O)CC3)n2)c1 [Compound 119]
32 | 88 nM | 0.15 µg/mL (≈ 0.255 µM) | > 58 µg/mL | – | – | Cc1cc(CN2CCS(=O)(=O)CC2)ccc1COc1ccc(F)cc1-c1csc(N2CCC(C(=O)O)CC2C)n1 (stereo not drawn) [Compound 131]
33 | 730 nM | > 64 µg/mL | 35 µg/mL (≈ 65.6 µM) | – | – | Cc1ccc(OCc2ccc(CNC3CCCCC3)cc2C)c(-c2csc(N3CCC(C(=O)O)CC3)n2)c1 [Compound 45]
34 | 1800 nM | – | > 54 µg/mL | 0.1 μg/mL | – | Cc1cc(C(=O)N2CCCCC2)ccc1COc1ccc(C#N)cc1-c1csc(N2CC3C(C2)C3C(=O)O)n1 (stereo not drawn) [Compound 64]

From patent US8815857B2 (Boehringer Ingelheim International GmbH, priority 2011, dated 2014)
